Results published in patent US9480674B2, “Method and composition for treating acne” (THESAN PHARMACEUTICALS, INC., priority 2012, dated 2016).
Entries after “also recorded” stand apart in the source; their conditions may differ. Where two headings read alike, the source gives them in different places.

What was measured:
sebum = test: Sebosuppressive activity on human skin (sebumetric casual level, sebutape, clinical observation); format: in vivo, man; conditions: for Sebosuppressive activity in man (reduction in sebum): NSA-1, NSA-2, NSA-8, NSA-9 tested at 0.5%
Experimental: The sebum inhibition index is calculated by counting the number of mature and differentiated cells in relation to the total number of cells in the sebaceous glands. A decrease in mature and differentiated cells indicates blocking of sebogenesis. The effect on human skin is determined by sebumetric examination using what is known as the “casual level” (Dobrev (2007)).

[1] = system: FADS2, AWAT1, ELOVL3 mRNA; test: Real-Time QRT-PCR of mRNA of sebogenic enzymes in ears of mice treated for five weeks; format: in vivo, C57BL/6 mice; conditions: mouse ears, 0.5% in acetone (TCDD 0.0005%), vs vehicle
Excerpt: At the end of that time the animals were sacrificed and the ears removed for further analysis.

[2] = system: CYP1A1 expression in sebaceous glands; test: Focal expression of AhR activation (CYP1A1 immunohistochemistry) in sebaceous gland cell types of topically treated mouse ears
Excerpt: The embodiment described here entails treating the ears of C57BL/6 mice via the topical route, following established protocols to determine dose-response and time-response relationships, with sebum reducing AhR pathway agonists previously characterized for their in vivo activation of the receptor, using, for example the EROD and CALUX methods which are widely used in this field (see Table 1).
Following topical treatment, the ears are sampled, and CYP1A1 expression is examined by immunohistochemical analysis using a specific antibody.
The study diagrammed in FIG. 1 and for which photomicrographs are provided in FIG. 2 entailed treating mice daily for one week with a topical AhR pathway agonist, with ears taken for examination at Day 7. Ears were recovered and fixed in formalin, paraffin embedded and then sections were prepared and positioned on slides for immunohistochemical staining. The specific antibody used in this instance was rabbit anti-rat CYP1A1 polyclonal antibody (Millipore AB1247). The AhR pathway agonists used in the example in FIG. 2 were as follows: • 1B) 6-formylindolo[3,2-b]carbozole (NSA4/FICZ); • 2B) 8,13-Dihydroindolo[2′,3′:3,4]pyrido[2,1-b]quinazolin-5(7H)-one (NSA1/rutecarpine); • 3B) 3-phenyl-1H-benzo[f]chromen-1-one (NSA2); • 4B)_2,3,7,8-tetrachlorodibenzo-p-dioxin (NSA3/TCDD).
In addition to the particular topography of the isthmus region, these cells are characterized by the expression of L-RIG1, a marker of isthmic multi-potent clonogenic cells (Jensen et al. (2009),).

[3] = in vivo; cited from earlier work
sebaceous glands = test: Dose effect in mice: sebosuppressive effect and tolerability of topical treatment of the ears; format: in vivo
Experimental: For these dose-effects tests, C57BL/6 mice were treated for three to five weeks, five days per week on the ears and in three concentrations, namely 0.1, 0.5, and 1% of NSA-2. The sebosuppressive effect was analyzed at the third week although expression thereof starts after one week.
Drug tolerability, in the absence of MADISH-type cyst production, was assessed after five weeks' treatment.

AhR (CYP1A1 induction) = target: T1, AhR (CYP1A1 induction) (Homo sapiens, UniProt P35869); test: EROD (ethoxyresorufin-O-deethylase) assay, CYP1A1 induction as reporter of AhR activation in vitro; format: cell-based; conditions: at 10 μM
T1 construct: endogenous in cells
T1 sequence (P35869 11-848): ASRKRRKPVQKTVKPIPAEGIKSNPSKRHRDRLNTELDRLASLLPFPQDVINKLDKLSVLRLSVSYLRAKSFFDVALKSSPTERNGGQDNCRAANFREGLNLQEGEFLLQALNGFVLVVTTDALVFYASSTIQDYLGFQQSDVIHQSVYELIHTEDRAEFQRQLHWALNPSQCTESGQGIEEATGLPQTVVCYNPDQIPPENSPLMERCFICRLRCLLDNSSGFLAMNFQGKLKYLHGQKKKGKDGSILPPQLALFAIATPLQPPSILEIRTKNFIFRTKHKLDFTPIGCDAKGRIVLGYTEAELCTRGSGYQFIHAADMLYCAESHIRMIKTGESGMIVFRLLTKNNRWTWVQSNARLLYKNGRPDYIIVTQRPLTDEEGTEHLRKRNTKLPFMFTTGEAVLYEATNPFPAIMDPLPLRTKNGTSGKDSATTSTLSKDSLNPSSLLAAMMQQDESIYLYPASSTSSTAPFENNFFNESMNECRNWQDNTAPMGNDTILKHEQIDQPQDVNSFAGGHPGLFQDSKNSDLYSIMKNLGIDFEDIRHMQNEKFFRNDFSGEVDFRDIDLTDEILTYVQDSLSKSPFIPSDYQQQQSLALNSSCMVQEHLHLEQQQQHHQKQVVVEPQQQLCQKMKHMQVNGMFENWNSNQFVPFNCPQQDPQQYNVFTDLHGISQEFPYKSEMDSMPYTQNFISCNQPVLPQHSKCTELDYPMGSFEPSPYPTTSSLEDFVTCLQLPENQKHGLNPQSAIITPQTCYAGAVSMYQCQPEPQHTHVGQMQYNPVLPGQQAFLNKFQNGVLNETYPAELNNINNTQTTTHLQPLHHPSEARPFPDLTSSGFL
Excerpt: As used herein, the term EROD refers to the ethoxyreorufin-O-deethylase (EROD) assay which monitors the induction of the xenobiotic-metabolizing enzyme cytochrome P-450 1A1(CYP1A1) and is a widely used as a reporter for measuring activation of the AhR in vitro (Zamaratskaia et al. (2009), Behnisch et al. (2001),)

[4] = in rodents; Adedoyin et al. (1993); cited from earlier work
[5] = Blood assay by HPLC in topically treated mice; format: in vivo, C57BL/6 mice; conditions: 5 nM sensitivity

O=c1cc(-c2ccccc2)oc2c1ccc1ccccc12 [NSA-8, 2-phenyl-4H-benzo[h]chromen-4-one]
Sebosuppressive activity in man (reduction in sebum) (sebum): neither 2-phenyl-4H-benzo[h]chromen-4-one nor 2-phenyl-4H-chromen-4-one exhibited any reduction in sebum | Inhibition of mRNA expression encoding the three sebogenic enzymes (FADS2, AWAT1, ELOVL3) [1]: slightly stimulating effect

O=Cc1c2c(cc3c1=Nc1ccccc1-3)=Nc1ccccc1-2 [NSA 4, 6-formylindolo[3,2-b]carbazole]
Activation of the AhR pathway (CYP1A1 staining) in the sebaceous cell sub-populations, stage reached ([2]; mouse, in vivo): limited distribution in the sebaceous glands when compared with NSA-2

COc1ccc2nc([S@@+]([O-])Cc3ncc(C)c(OC)c3C)[nH]c2c1 [NSA 7, (S)-5-methoxy-2-[(4-methoxy-3,5-dimethylpyridin-2-yl)methylsulfinyl]-3H-benzoimidazole]
Sebosuppressive activity in man (sebum; tested at 8%): no sebosuppressive activity in man | Activation of the AhR pathway (CYP1A1 staining) in the sebaceous cell sub-populations, stage reached ([2]; mouse, in vivo): only activates the AhR receptor pathways in Stage One of the cell sub-populations

O=c1c2ccccc2nc2n1CCc1c-2[nH]c2ccccc12 [NSA 1, 8,13-Dihydroindolo[2′,3′:3,4]pyrido[2,1-b]quinazolin-5(7H)-one]
Sebosuppressive activity in man (reduction in sebum) (sebum): potentially useful sebosuppressive activity in man when tested at the same concentrations (0.5%), although weaker than that of NSA-2 | Activation of the AhR pathway (CYP1A1 staining) in the sebaceous cell sub-populations, stage reached ([2]; mouse, in vivo): activates the AhR pathway in two of the cell sub-populations in mice

O=c1cc(-c2ccccc2)oc2ccccc12 [NSA-9, 2-phenyl-4H-chromen-4-one]
Sebosuppressive activity in man (reduction in sebum) (sebum): neither 2-phenyl-4H-benzo[h]chromen-4-one nor 2-phenyl-4H-chromen-4-one exhibited any reduction in sebum | Inhibition of mRNA expression encoding the three sebogenic enzymes (FADS2, AWAT1, ELOVL3) [1]: no significant effect

Clc1cc2c(cc1Cl)Oc1cc(Cl)c(Cl)cc1O2 [NSA 3, 2,3,7,8-tetrachlorodibenzo-p-dioxin]
half-life [3]: measureable in years | Sebosuppressive activity in man (reduction in sebum) (sebum): strongest sebosuppressive activity in man | Inhibition of mRNA expression encoding the three sebogenic enzymes (FADS2, AWAT1, ELOVL3) [1]: degree of specific gene suppression seen with NSA-2 is equivalent to that seen with the structurally unrelated compound NSA-3 | Activation of the AhR pathway (CYP1A1 staining) in the sebaceous cell sub-populations, stage reached ([2]; mice, topical, first week of treatment): activate the AhR pathway in the four cell sub-populations within a period of less than one week

O=c1cc(-c2ccccc2)oc2ccc3ccccc3c12 [NSA 2, 3-phenyl-1H-benzo[f]chromen-1-one]
Sebosuppressive effect in mice (active sebaceous glands, gland surface, ratios of sebocytes; FIGS. 5-8) (sebaceous glands; 0.1, 0.5 and 1%, ears, five days per week, analyzed at the third week): very marked effects; also recorded: a reduction in the differentiated compartment of the gland was observed | MADISH-type cystic lesions (sebaceous glands; after five weeks' treatment, any concentration tested): No cystic lesion were observed | Tolerability in mice (sebaceous glands; mouse, in vivo): good tolerability | AhR activation in the standard EROD assay, % of the level of induction seen with 0.01 μM TCDD (AhR (CYP1A1 induction)): 10-20% | Sebosuppressive activity in man (reduction in sebum) (sebum): strongest sebosuppressive activity in man; also recorded: active in reducing sebum | half-life [4]: less than 45 mins | Inhibition of mRNA expression encoding the three sebogenic enzymes (FADS2, AWAT1, ELOVL3) [1]: major inhibition | Activation of the AhR pathway (CYP1A1 staining) in the sebaceous cell sub-populations, stage reached ([2]; mouse, in vivo): activate the AhR pathway in the four cell sub-populations within a period of less than one week | Blood level by HPLC [5]: < 5 nM
